# Experimental data published in patent publication US20050171014A1, “Conjugates of ligand linker and cytotoxic agent and related composition and methods of use” (Government of the United States of America, represented by …, priority 2003, published 2005).
# Starred links: 1 amine or outer side, 2 acyl side, 3 side chain; linkers in the order of their positions; H or OH if unused. Non-standard residues stand in square brackets, D forms with d. Residues, ends and D or L forms follow the SMILES beside them. NMePhe(β,β-Me2) = CN[C@H](C(=O)O)C(C)(C)c1ccccc1; X1 = C/C(=C\[C@H](C(C)C)N(C)[*:1])C(=O)[*:2]; Tle = CC(C)(C)[C@H](N)C(=O)O; Nle = CCCC[C@H](N)C(=O)O
# Experiments:
# [1] = tested on: gastrin receptor-expressing 3T3 cells; format: cell-based; conditions: methods of Example 7
# Protocol: Isogenic cell lines, one transfected with the target cell surface receptor and the parent cell line without detectable receptor expression, were used for determination of selective activity of toxin conjugates. Transfection of NIH/3T3, CHO and HeLa cells (American Type Culture Collection, Manassas, Va.) with gastrin receptor cDNA (prepared as described in Tarasova et al., J. Biol. Chem. 272: 14817-14824 (1997)) was performed as described (Tarasova et al., J Biol. Chem. 272(23): 14817-14824 (1997)). For the tests, the cells were seeded in 96-well plates at a density of 500-1000 cells per well and allowed to attach for 24 hours. The compounds were added to the cells at concentrations ranging from 10 pM to 10 μM and the cells were grown in a CO2 incubator in the presence of compounds for 4-5 days. The cell number was estimated with either the methylthiazolyldiphenyl-tetrazolium bromide (MTT) assay (Alley et al., Cancer Res. 48(3): 589-601 (1988)) or sulforhodamine assay as described in Skehan et al., J. Natl. Cancer Inst. 82(13): 1107-1112 (1990)).
# [2] = tested on: cathepsin B and cathespin D
smiles,measurement,setting,value
"CCCC[C@H](NC(=O)[C@H](Cc1c[nH]c2ccccc12)NC(=O)CNC(=O)[C@H](Cc1ccc(O)cc1)NC(=O)[C@H](C)NC(=O)[C@H](CCC(=O)O)NC(=O)[C@H](CCC(=O)O)NC(=O)[C@H](CCC(=O)O)NC(=O)[C@H](C)NC(=O)[C@H](CC(C)C)NC(=O)[C@H](C)NC(=O)[C@H](CC(C)C)NC(=O)[C@@H](NC(=O)/C(C)=C/[C@H](C(C)C)N(C)C(=O)[C@@H](NC(=O)[C@@H](NC)C(C)(C)c1ccccc1)C(C)(C)C)C(C)C)C(=O)N[C@@H](CC(=O)O)C(=O)N[C@@H](Cc1ccccc1)C(N)=O (H-[NMePhe(β,β-Me2)][Tle][X1]VLALAEEEAYGW[Nle]DF-NH2)",IC50,[1],1000 nM
same,products of hydrolysis by lysosomal proteases,[2],generated mostly pentapeptide or SPA110 extended by Val-Leu on the C-terminus
